ChEMBL document CHEMBL1201862, “PubChem BioAssay data set” (2004)
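Cultured in 96-well plates, cells were exposed to test compound for 48 hours across five concentrations. GI50 is the concentration that inhibits growth by half.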 Activity calls are given as the source filed them. Rule as the data show it: active = GI50 up to about 1.1 µM and inactive = higher.

Assays:
Test in all cases: DTP human tumour cell line panel, 48 h
786-0 = system: 786-0
A498 = system: A498
A549 = system: A549
ACHN = system: ACHN
BT-549 = system: BT-549
CCRF-CEM = system: CCRF-CEM
COLO 205 = system: COLO 205
EKVX = system: EKVX
HCC 2998 = system: HCC 2998
HCT-116 = system: HCT-116
HCT-15 = system: HCT-15
HL-60 = system: HL-60
HT-29 = system: HT-29
Hs-578T = system: Hs-578T
IGROV-1 = system: IGROV-1
K562 = system: K562
LOX IMVI = system: LOX IMVI
M14 = system: M14
MDA-MB-435 = system: MDA-MB-435
MDA-N = system: MDA-N
MOLT-4 = system: MOLT-4
NCI-H23 = system: NCI-H23
NCI/ADR-RES = system: NCI/ADR-RES
OVCAR-5 = system: OVCAR-5
OVCAR-8 = system: OVCAR-8
PC-3 = system: PC-3
RPMI-8226 = system: RPMI-8226
RXF 393 = system: RXF 393
SF-268 = system: SF-268
SF-539 = system: SF-539
SK-MEL-28 = system: SK-MEL-28
SK-MEL-2 = system: SK-MEL-2
SK-MEL-5 = system: SK-MEL-5
SK-OV-3 = system: SK-OV-3
SN12C = system: SN12C
SNB-19 = system: SNB-19
SNB-75 = system: SNB-75
SR = system: SR
SW-620 = system: SW-620
T47D = system: T47D
TK-10 = system: TK-10
U-251 = system: U-251
UACC-257 = system: UACC-257
UO-31 = system: UO-31
CAKI-1 = system: CAKI-1
HOP-62 = system: HOP-62
HOP-92 = system: HOP-92
KM12 = system: KM12
MDA-MB-231 = system: MDA-MB-231
Malme-3M = system: Malme-3M
NCI-H226 = system: NCI-H226
NCI-H460 = system: NCI-H460
NCI-H522 = system: NCI-H522
OVCAR-3 = system: OVCAR-3
OVCAR-4 = system: OVCAR-4
SF-295 = system: SF-295
UACC-62 = system: UACC-62
DU-145 = system: DU-145
MCF7 = system: MCF7

CCOC(=O)C(NC(=O)NCc1ccc(F)cc1)C(F)(F)F (centres undefined)
GI50 (786-0): > 100 µM (inactive) | GI50 (A498): > 100 µM (inactive) | GI50 (A549): > 100 µM (inactive) | GI50 (ACHN): > 100 µM (inactive) | GI50 (BT-549): > 100 µM (inactive) | GI50 (CCRF-CEM): > 100 µM (inactive) | GI50 (COLO 205): > 100 µM (inactive) | GI50 (EKVX): > 100 µM (inactive) | GI50 (HCC 2998): > 100 µM (inactive) | GI50 (HCT-116): > 100 µM (inactive) | GI50 (HCT-15): > 100 µM | GI50 (HL-60): > 100 µM (inactive) | GI50 (HT-29): > 100 µM (inactive) | GI50 (Hs-578T): > 100 µM (inactive) | GI50 (IGROV-1): > 100 µM (inactive) | GI50 (K562): > 100 µM (inactive) | GI50 (LOX IMVI): > 100 µM (inactive) | GI50 (M14): > 100 µM (inactive) | GI50 (MDA-MB-435): > 100 µM (inactive) | GI50 (MDA-N): > 100 µM (inactive) | GI50 (MOLT-4): > 10 µM (inactive) | GI50 (NCI-H23): > 100 µM (inactive) | GI50 (NCI/ADR-RES): > 100 µM (inactive) | GI50 (OVCAR-5): > 100 µM (inactive) | GI50 (OVCAR-8): > 100 µM (inactive) | GI50 (PC-3): > 100 µM (inactive) | GI50 (RPMI-8226): > 100 µM (inactive) | GI50 (RXF 393): > 100 µM (inactive) | GI50 (SF-268): > 100 µM (inactive) | GI50 (SF-539): > 100 µM (inactive) | GI50 (SK-MEL-28): > 100 µM (inactive) | GI50 (SK-MEL-2): > 100 µM (inactive) | GI50 (SK-MEL-5): > 100 µM (inactive) | GI50 (SK-OV-3): > 100 µM (inactive) | GI50 (SN12C): > 100 µM (inactive) | GI50 (SNB-19): > 100 µM (inactive) | GI50 (SNB-75): > 100 µM (inactive) | GI50 (SR): > 100 µM (inactive) | GI50 (SW-620): > 100 µM (inactive) | GI50 (T47D): > 100 µM (inactive) | GI50 (TK-10): > 100 µM (inactive) | GI50 (U-251): > 100 µM (inactive) | GI50 (UACC-257): > 100 µM (inactive) | GI50 (UO-31): > 100 µM (inactive)

COc1cc(C)cc(OC)c1/C=C/C(=O)O
GI50 (786-0): > 100 µM (inactive) | GI50 (A498): > 100 µM (inactive) | GI50 (A549): > 100 µM (inactive) | GI50 (ACHN): > 100 µM (inactive) | GI50 (BT-549): > 100 µM (inactive) | GI50 (CAKI-1): > 100 µM (inactive) | GI50 (EKVX): > 100 µM (inactive) | GI50 (HCC 2998): > 100 µM (inactive) | GI50 (HCT-116): > 100 µM (inactive) | GI50 (HCT-15): > 100 µM | GI50 (HL-60): > 100 µM (inactive) | GI50 (HOP-62): > 100 µM (inactive) | GI50 (HOP-92): > 100 µM (inactive) | GI50 (HT-29): > 100 µM (inactive) | GI50 (Hs-578T): 24.8 µM (inactive) | GI50 (IGROV-1): > 100 µM (inactive) | GI50 (K562): > 100 µM (inactive) | GI50 (KM12): > 100 µM (inactive) | GI50 (LOX IMVI): > 100 µM (inactive) | GI50 (M14): > 100 µM (inactive) | GI50 (MDA-MB-231): > 100 µM (inactive) | GI50 (MDA-MB-435): > 100 µM (inactive) | GI50 (MDA-N): > 100 µM (inactive) | GI50 (MOLT-4): > 100 µM (inactive) | GI50 (Malme-3M): > 100 µM (inactive) | GI50 (NCI-H226): > 100 µM (inactive) | GI50 (NCI-H23): > 100 µM (inactive) | GI50 (NCI-H460): > 100 µM (inactive) | GI50 (NCI-H522): > 100 µM (inactive) | GI50 (NCI/ADR-RES): > 100 µM (inactive) | GI50 (OVCAR-3): 21.5 µM (inactive) | GI50 (OVCAR-4): > 100 µM (inactive) | GI50 (OVCAR-5): > 100 µM (inactive) | GI50 (OVCAR-8): > 100 µM (inactive) | GI50 (PC-3): > 100 µM (inactive) | GI50 (RPMI-8226): > 100 µM (inactive) | GI50 (RXF 393): > 100 µM (inactive) | GI50 (SF-268): > 100 µM (inactive) | GI50 (SF-295): > 100 µM (inactive) | GI50 (SK-MEL-28): > 100 µM (inactive) | GI50 (SK-MEL-2): > 100 µM (inactive) | GI50 (SK-MEL-5): > 100 µM (inactive) | GI50 (SN12C): > 100 µM (inactive) | GI50 (SNB-19): > 100 µM (inactive) | GI50 (SR): > 100 µM (inactive) | GI50 (SW-620): > 100 µM (inactive) | GI50 (T47D): > 100 µM (inactive) | GI50 (TK-10): > 100 µM (inactive) | GI50 (U-251): > 100 µM (inactive) | GI50 (UACC-257): > 100 µM (inactive) | GI50 (UACC-62): > 100 µM (inactive) | GI50 (UO-31): > 100 µM (inactive)

CN(C)Cc1cc(/N=N/c2ccc(Cl)cc2)ccc1OC(=O)c1ccccc1
GI50 (786-0): 14.7 µM (inactive) | GI50 (A498): 15.5 µM (inactive) | GI50 (A549): 3.26 µM (inactive) | GI50 (ACHN): 14.5 µM (inactive) | GI50 (BT-549): 22.1 µM (inactive) | GI50 (CCRF-CEM): 15.3 µM (inactive) | GI50 (COLO 205): 18.4 µM (inactive) | GI50 (DU-145): 17 µM (inactive) | GI50 (EKVX): 12.1 µM (inactive) | GI50 (HCC 2998): 15.3 µM (inactive) | GI50 (HCT-116): 16.4 µM (inactive) | GI50 (HCT-15): 12.9 µM | GI50 (HL-60): 13.5 µM (inactive) | GI50 (HOP-62): 12.6 µM (inactive) | GI50 (HOP-92): 2.9 µM (inactive) | GI50 (HT-29): 14.4 µM (inactive) | GI50 (Hs-578T): 16.4 µM (inactive) | GI50 (IGROV-1): 13.2 µM (inactive) | GI50 (K562): 14.4 µM (inactive) | GI50 (KM12): 15.7 µM (inactive) | GI50 (LOX IMVI): 12.4 µM (inactive) | GI50 (MCF7): 13.2 µM (inactive) | GI50 (MDA-MB-231): 14.1 µM (inactive) | GI50 (MDA-MB-435): 15.7 µM (inactive) | GI50 (MDA-N): 16.5 µM (inactive) | GI50 (MOLT-4): 8.85 µM (inactive) | GI50 (Malme-3M): 16.7 µM (inactive) | GI50 (NCI-H226): 21.9 µM (inactive) | GI50 (NCI-H23): 17.8 µM (inactive) | GI50 (NCI-H460): 15.3 µM (inactive) | GI50 (NCI-H522): 12.2 µM (inactive) | GI50 (NCI/ADR-RES): 17.7 µM (inactive) | GI50 (OVCAR-3): 15.7 µM (inactive) | GI50 (OVCAR-4): 14.1 µM (inactive) | GI50 (OVCAR-5): 16.8 µM (inactive) | GI50 (OVCAR-8): 17 µM (inactive) | GI50 (PC-3): 15.6 µM (inactive) | GI50 (RPMI-8226): 15.6 µM (inactive) | GI50 (RXF 393): 14.5 µM (inactive) | GI50 (SF-268): 19.2 µM (inactive) | GI50 (SF-295): 14.8 µM (inactive) | GI50 (SF-539): 18.2 µM (inactive) | GI50 (SK-MEL-28): 16.1 µM (inactive) | GI50 (SK-MEL-5): 14.9 µM (inactive) | GI50 (SN12C): 14.6 µM (inactive) | GI50 (SNB-19): 15 µM (inactive) | GI50 (SNB-75): 17 µM (inactive) | GI50 (SR): 12 µM (inactive) | GI50 (SW-620): 16.9 µM (inactive) | GI50 (TK-10): 15.3 µM (inactive) | GI50 (U-251): 15 µM (inactive) | GI50 (UACC-257): 19.2 µM (inactive) | GI50 (UO-31): 12.6 µM (inactive)
